Entries after “also recorded” stand apart in the source; their conditions may differ.
What was measured:
[1] = tested on: S. cerevisiae; experiment: Fluconazole MIC test (broth microdilution) with Hsp90 or calcineurin inhibitors; assay type: cell-based, Saccharomyces cerevisiae
Protocol: (§1) Cell densities of overnight cultures were determined and dilutions were prepared such that ˜10^3 cells were inoculated into each well. Radicicol (RAD, A.G. Scientific, Inc.) and geldanamycin (GdA, Alexis Biochemicals) were employed to inhibit Hsp90 at the concentrations indicated in the figure legends (1-5 μM). Cyclosporin A (CsA, CalBiochem) was employed to inhibit calcineurin at a concentration of 20 μM. Dimethyl sulfoxide (DMSO, Sigma-Aldrich Co.) was the solvent for RAD, GdA, and CsA. Thus, the maximum final DMSO concentration (0.14%) was included in FL MIC tests performed in the absence of RAD, GdA, or CsA to control for any solvent effects.
(§2) After 48 hours, plates were sealed with a clear film (Axygen Scientific), re-suspended by agitation, and absorbance was determined at 595 nm with the Multiskan Ascent photometer (Thermo Labsystems, Thermo Electron Corporation). Absorbance values were corrected for background from the corresponding medium. MICs were determined as the concentration of FL that inhibits fungal growth by 50% relative to the FL-free growth control. The MIC of each strain was tested at least two independent times in duplicate. Most strains were tested in rich medium (half-strength YPD) and SD medium. C. albicans clinical isolates were also tested in the synthetic defined medium that is the standard for clinical testing, RPMI (9).

[2] = tested on: A. terreus soil isolate ATCC 10020; experiment: Etest strip drug resistance; assay type: cell-based, Aspergillus terreus; settings: rich medium, 35° C., 36 hours
Protocol: FIG. 6. Hsp90 potentiates resistance to different drugs in C. albicans and A. terreus. […] Plates contained the Hsp90 inhibitor RAD (5 μM) or the calcineurin inhibitor CsA (20 μM). The MIC value is where the inhibition ellipse intersects the strip.
Resistance of C. albicans clinical isolate T118 and A. terreus soil isolate ATCC 10020 to FL, voriconazole (VO), and caspofungin (CS) was determined with Etest strips (AB Biodisk) on rich medium (half-strength YPD). For C. albicans, standardized inoculum was prepared as described above and ˜10^5 cells were plated on medium with the Hsp90 inhibitor RAD (5 μM), the calcineurin inhibitor CsA (20 μM), or the solvent control (0.14% DMSO), prior to application of a test strip. Plates were photographed after 36 hours at 30° C. in the dark. For A. terreus, inoculum was prepared according to a standard protocol (15) and ˜10^5 conidia were plated prior to application of a test strip. Plates were photographed after 36 hours at 35° C. in the dark.

[3] = tested on: C. albicans; experiment: Selection of fluconazole-resistant mutants on plates; assay type: cell-based, Candida albicans; settings: 128 μg/ml fluconazole and 1 μM RAD; CAI4 and CaERG3/erg3; 7 days, 30° C.
Protocol: Strains of C. albicans were grown at 30° C. in SD prior to plating ˜10^4 cells on SD plates with 128 μg/ml FL or with both 128 μg/ml FL and 1 μM RAD. Plates were photographed after 7 days at 30° C. in the dark.

[4] = tested on: S. cerevisiae; experiment: Serial cell dilution (spotting) assay with or without fluconazole; assay type: cell-based, Saccharomyces cerevisiae; settings: GdA 5 μM or RAD 1 μM; 64 μg/ml fluconazole; rich medium, 30° C.; concordant by MIC testing
Protocol: FIG. 4. Hsp90 and calcineurin are required for FL resistance acquired through diverse mutations. […] Top two panels, deletion mutants. Bottom panel, control strains obtained by rapid (R1-3) and gradual (G1-3) selection. (A) Hsp90 was inhibited by GdA (5 μM) or RAD (1 μM), as indicated. (B) Calcineurin was inhibited by cyclosporin A (CsA, 20 μM).
(§3) Strains were grown to saturation in SD medium and cell concentrations were standardized based on optical density. Five-fold dilutions, starting from ˜4×10^6 cells/ml, were spotted on media, as indicated in the figure legends, using a spotter (Frogger, V&P Scientific, Inc). The plates were photographed after 2-3 days in the dark at the indicated temperature. For all spotting assays in which Hsp90 or calcineurin inhibitors were employed, the corresponding plates without these inhibitors was supplemented with the maximum final concentration of DMSO used (0.14%), as a solvent control.

[5] = tested on: C. albicans; experiment: Serial cell dilution (spotting) assay, growth with RAD; assay type: cell-based, Candida albicans; settings: 1 μM RAD; CAI4 and CaERG3/erg3; SD medium, 30° C., two days
Protocol: Serial dilutions of CAI4 and CaERG3/erg3 were spotted on SD medium (upper panel) and medium supplemented with 1 μM RAD (bottom panel). Plates were photographed after two days at 30° C. in the dark.
as §3

[6] = tested on: C. albicans; settings: synthetic defined media; previous studies; cited from earlier work
[7] = tested on: C. albicans; experiment: Fluconazole MIC test (broth microdilution); assay type: cell-based, Candida albicans; settings: CAI4 and CaERG3/erg3
Protocol: as §1
as §2, with “MICs were determined as the concentration of FL that inhibits fungal growth by 50% relative to the FL-free growth control.” left out

[8] = GdA 5 μM or RAD 5 μM, SD medium, 30° C.

## C[C@@H](c1ncncc1F)[C@](O)(Cn1cncn1)c1ccc(F)cc1F [voriconazole]
[1]; all FLR strains obtained by rapid fluconazole selection
  voriconazole resistance of FLR strains: resistant
[2]
  sensitivity of A. terreus to voriconazole relative to fluconazole: much more sensitive to this azole than to fluconazole

## C[C@@H]1C[C@H]2O[C@@H]2/C=C\C=C\C(=O)Cc2c(Cl)c(O)cc(O)c2C(=O)O1 [RAD, radicicol]
[3]
  colonies recovered on selection plates with fluconazole plus RAD: no colonies were recovered
[1]; GdA 5 μM or RAD 5 μM, 0 μg/ml fluconazole, SD medium, 30° C.
  effect of inhibitor alone on growth: did not impair growth on their own
[1]; [8]
  effect on fluconazole resistance of G1-3 strains (gradual selection): neither GdA nor RAD altered resistance
  effect on fluconazole resistance of R1-3 strains (rapid selection): abolished fluconazole resistance
  effect on fluconazole sensitivity of progenitor strains: had no effect
[4]
  effect on fluconazole resistance of eleven deletion mutants: reduced the fluconazole resistance in all of them
[5]
  effect on growth in the absence of fluconazole: does not impair growth; also recorded: had no effect on growth

## OC(Cn1cncn1)(Cn1cncn1)c1ccc(F)cc1F [fluconazole]
[6]
  fluconazole sensitivity of clinical isolate T118: sensitive
[1]; all strains (Lo90, Re90, Hi90), SD medium, 23° C.
  fluconazole concentration at which growth is completely arrested: 16 µg/mL
[7]
  fluconazole concentration at which growth is completely arrested: 16 µg/mL

From patent publication US8343913B1, “Hsp90, buffering and drug resistance” (priority 2004, dated 2013)
